Results published in patent publication US9863953B2, “Method for determining prognosis of cancer” (KYOTO UNIVERSITY, priority 2013, dated 2018).
Entries after “also recorded” stand apart in the source; their conditions may differ.

Key:
[1] = tested on: HCT116 cells; test: Attachment assay of CRC cells to lung endothelial cell layer; format: cell-based, human
Method: Attachment assay was performed according to the established protocol {Reymond, 2012}. Briefly, human lung endothelial cells were plated onto collagen-coated dish. After they reached confluent to form a layer, EGFP-labeled CRC cells were plated onto it. Fifteen minutes later, floating cells were washed with PBS, and the numbers of CRC cells adhering to the endothelial layer were counted under a fluorescent microscope.

[2] = tested on: Notch receptor; test: Notch receptor cleavage (NICD) after EDTA treatment, IP-western; format: cell-based, human; settings: 10 mM EDTA; anti-Notch1 (C-term) antibody
Method: (§1) Cultured CRC cells were washed with PBS, treated with 10 mM EDTA in PBS for 2 minutes, and incubated again in culture media. […] After incubation for defined period, cells were lysed and cleaved Notch and GTP-Rho was detected. DAPT (Calbiochem) were applied to cultured CRC cells to inhibit its γ-secretase activity.
ABL1B cDNA was prepared from cDNA pool of human colon and tagged with hemaglutinin (HA) sequence to construct ABL1B-HA. The wild-type cDNA was mutagenized by QuikChange Lightning Multi Site-Directed Mutagenesis Kit (Agilent) to derive kinase-dead ABL1B(K290R)-HA mutant. These ABL1B constructs were placed into pEFBosneo expression vector (provided by Shigekazu Nagata, Kyoto University, Japan). DAB1-Flag cDNA was inserted into pcDNA3 (Invitrogen). TRIO cDNA (provided by Anne Debant, CRBM-CNRS, France) was tagged with T7 sequence and inserted into pCX expression vector carrying CAG promoter and rabbit β-globin poly(A) (provided by Masaru Okabe, Osaka University, Japan). NICD-Myc expression vector was provided by Tasuku Honjo, Kyoto University, Japan. These expression vectors were transfected into CRC or HEK293T cells using Lipofectamine LTX (Invitrogen). Sixteen hours post-transfection, the cells were lysed in lysis buffer (10 mM Tris-Cl, 1 mM EDTA, 150 mM NaCl and 1% NP-40). The supernatants were mixed with agarose conjugated with anti-HA, Flag, T7, or Myc antibodies (MBL). […]

[3] = tested on: DAB1; test: DAB1 mRNA quantitative RT-PCR in LS174T cells on rDLL4; format: cell-based, human
Method: (§2) Recombinant DLL4 (rDLL4) (R&D) was resuspended with PBS. For scratch and GTP-Rho pull-down assays, 1 μg was put into 6-well culture plate to coat its surface with rDLL4 at 0.1 μg/cm^2. For q-RT-PCR assays, the plate surface was coated with rDLL4 at 0.1-1 μg/cm^2. After overnight incubation at 4-degree, the plates were washed once with PBS and plated with CRC cells. For expression analysis of HES1 and DAB1, cells were lysed and mRNA was extracted after four hours.
TaqMan primers/probes for quantification of HES1, DAB1, ABL1, and ABL2 mRNAs were purchased from ABI. ChIP analyses were performed by using CRC cells and anti-Rbpj (Institute of Immunology) and anti-NICD (Cell Signaling Technology) antibodies according to published protocol (Kakizaki et al., 2010). Precipitated fragments of genomic DNA were tested for enrichment of promoter regions of HES1 gene by SYBR green (ABI) using hHES1ChIP.F ([…]) (SEQ ID NO: 4) and hHES1ChIP.R ([…]) (SEQ ID NO: 5) primers that sandwich high affinity binding sequence of Rbpj. Similarly, enrichment of DAB1 promoter fragments was quantified by hDAB1ChIP.F2 ([…]) (SEQ ID NO: 6) and hDAB1ChIP.R2 ([…]) (SEQ ID NO: 7) primers.

[4] = tested on: Rho; test: Active Rho (GTP-Rho) pull-down assay in RKO cells; format: cell-based, human
Method: GTP-Rho was pulled-down and detected by using Rho activation assay kit (Thermo) according to the manufacturers' protocol. Briefly, tissues or CRC cells were lysed with lysis buffer, and GTP-Rho in the lysates was pulled-down using Rhotekin and detected by anti-Rho antibody in western analysis.
as §2, §1

[5] = tested on: RKO human CRC cells; test: Matrigel invasion assay, RKO cells; format: cell-based; settings: for Matrigel invasion of RKO cells: inhibitor treatment 16 h prior to assay
Method: (§3) Matrigel invasion assays were performed as previously described using Matrigel (BD) {Sonoshita, 2011}. For TEM assay, human umbilical vein endothelial cell (HUVEC) was seeded in the upper chamber of Transwell (Corning). One day (24 h) later, EGFP-labeled CRC cells were plated onto the layer of HUVEC. After 24 h, CRC cells migrated to the lower side of the membrane were counted under a fluorescent microscope.

[6] = tested on: HCT116 cells; test: Matrigel invasion assay, HCT116 cells; format: cell-based, human
Method: as §3

[7] = tested on: RKO human CRC cells; test: Transendothelial migration (TEM) assay, RKO cells; format: cell-based; settings: inhibitor treatment 16 h prior, HUVEC layer, 24 h
Method: as §3

[8] = tested on: HCT116; test: Transendothelial migration (TEM) assay, HCT116 cells; format: cell-based, human; settings: HCT116, data not shown
Method: as §3

[9] = tested on: Apc/Aes compound mutant mice; test: Tumor invasion histopathology in Apc/Aes compound mutant mice; format: in vivo, mouse; settings: 50 mg/kg/day i.p. for 9 weeks
Source text: Apc^+/Δ716 mutant mice were generated and maintained as described previously {Oshima, 1995}. Apc^+/Δ716Aes^Floxed/FloxedvCre^ERT2 (abbreviated as Apc/Aes) mice were constructed as reported to knockout Aes in Apc^+/Δ716 mice by virtue of Cre^ERT2 whose expression is driven by intestinal epithelium-specific villin promoter {Sonoshita, 2011}. Rbpj floxed allele was constructed as reported {Han, 2002}, obtained from RIKEN BRC, and crossed with Apc/Aes mice to derive Apc^+/Δ716Aes^Floxed/FloxedRbpj^Floxed/FloxedvCre^ERT2 (Apc/Aes/Rbpj) mice. Dab1 floxed allele was constructed (Imai et al., in preparation) and crossed with Apc/Aes mice to obtain Apc^+/Δ716Aes^Floxed/FloxedDab1^Floxed/FloxedvCre^ERT2 (Apc/Aes/Dab1) mice. Tumor histopathology in compound mutant mice was analyzed at 12 weeks of age. […] Total of ˜100 tumors with diameters larger than 2 mm from 5 mice were scored for each mutant genotype. CRC cell lines were obtained from ATCC. Upon transplantation into the rectal smooth muscle, CRC cells formed a visible primary tumor within a week. Six weeks later, mice were euthanized and examined for metastatic foci under a fluorescent microscope (Leica). All animal experiments were conducted according to the protocol approved by the Animal Care and Use Committee of Kyoto University.

[10] = tested on: TRIO; test: Cell-free RhoGEF GTP exchange assay; format: biochemical, human; settings: TRIO(WT) from imatinib-treated HEK293T transfectants; recombinant RhoA, mant-GTP, 10 min
Source text: First, we transfected HEK293T cells with an expression plasmid for T7-TRIO (either WT, Y2681F or G2699V), and pulled-down each TRIO protein from cell lysates using agarose conjugated with anti-T7 antibody (MBL). Then we mixed the TRIO fraction with recombinant RhoA in the presence of mant-GTP (Cytoskeleton) that emits stronger fluorescence when bound to Rho small GTPases (Rossman et al., 2002).

Compound: C[C@H](NC(=O)Cc1cc(F)cc(F)c1)C(=O)N[C@H](C(=O)OC(C)(C)C)c1ccccc1 [DAPT]
- Number of CRC cells remaining attached to the EC layer ([1]; HCT116 treated 2 hours, washing at 15 min post plating): reduced
- EC adhesion of CRC cells with RBPJ knocked-down ([1]; RBPJ-knockdown HCT116, DAPT 2 hours): prevented
- Cleaved Notch receptor (NICD) upon EDTA treatment [2]: blocked; also recorded: inhibited
- DAB1 mRNA expression induced by rDLL4 ([3]; LS174T, 10 μM DAPT for 24 h, rDLL4-coated dishes, 4 h): inhibited
- Rho activation (GTP-Rho) after Notch receptor activation with EDTA ([4]; RKO cells, 10 μM DAPT for 12 h, then 10 mM EDTA): inhibited; also recorded: Suppression

Compound: CCN(CC)CCCC(C)Nc1nc(C)cc(Nc2ccc3nc(C)cc(N)c3c2)n1 (centres unmarked) [NSC23766]
- Matrigel invasion of RKO cells [5]: did not affect
- Matrigel invasion of RKO cells ([5]; listed as NSC27366): Little effect

Compound: CC(C)(C)n1nc(-c2ccc(Cl)cc2)c2c(N)ncnc21 [PP2]
- Matrigel invasion ([6]; PP2 at 10 μm, FIG. 10A): only a minor effect
- effect on the RKO cell invasion in culture ([5]; RKO cell invasion in culture, FIG. 10A): ~20%
- Matrigel invasion of RKO cells [5]: only a minor inhibition

Compound: C[C@@H](N)[C@H]1CC[C@H](C(=O)Nc2ccncc2)CC1 [Y-27632]
- Transendothelial migration (TEM) of RKO cells [7]: suppresses
- Matrigel invasion of HCT116 cells ([6]; HCT116, data not shown): suppressed
- Matrigel invasion of RKO cells [5]: suppresses
- Transendothelial migration (TEM) of HCT116 cells [8]: suppressed

Compound: Cc1nc(Nc2ncc(C(=O)Nc3c(C)cccc3Cl)s2)cc(N2CCN(CCO)CC2)n1.O [dasatinib, N-(2-chloro-6-methylphenyl)-2-[[6-[4-(2-hydroxyethyl)-1-piperazinyl]-2-methyl-4-pyrimidinyl]amino]-5-thiazole carboxamide monohydrate]
- HCT116 cell invasion in Matrigel ([6]; dasatinib at 0.01 μm, FIG. 10A): tight suppression
- Matrigel invasion of RKO cells [5]: suppressed the invasion significantly

Compound: Cc1ccc(NC(=O)c2ccc(CN3CCN(C)CC3)cc2)cc1Nc1nccc(-c2cccnc2)n1 [imatinib, 4-(4-methylpiperazin-1-ylmethyl)-N-[4-methyl-3-(4-(pyridin-3-yl)-pyrimidin-2-ylamino-)phenyl]-benzamide]
- tumor size or number [9]: without changing
- CRC invasion (depth of tumor invasion) ([9]; 50 mg/kg/day): significant suppression; also recorded: suppresses
- Capacity of Rho activation (RhoGEF activity) of TRIO(WT) purified from imatinib-treated cells [10]: significantly decreased
- Matrigel invasion of RKO cells [5]: blocks
- Rho activation (GTP-Rho) induced by EDTA ([4]; RKO cells, pull-down 5 minutes after EDTA, dose-dependent): blocked; also recorded: inhibits

Compound: rDLL4: recombinant extracellular domain of Notch ligand DLL4 (R&D), immobilized on dish surface
- DAB1 mRNA expression ([3]; LS174T on immobilized rDLL4 0.1-1 μg/cm^2, 4 h, dose-dependent): increased; also recorded: induces
- Rho activation (GTP-Rho) ([4]; cultured CRC cells on dishes coated with rDLL4): activated
